From patent US10604514B2, “6-(5-membered heteroaryl)isoquinolin-3-yl carboxamides and preparation and use thereof” (Samumed, LLC, priority 2017, dated 2020)
Like-named read-outs stand apart in the source and are kept apart here.

Assays:
[1] = test system: Wnt activity (Sp5-Luc reporter in SW480 colon carcinoma cells); experiment: Wnt activity screening assay (Sp5-Luc reporter gene assay); assay type: cell-based, human
Procedure, shortened: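 SW480 cells stably carrying an Sp5 promoter (eight TCF/LEF sites)-firefly luciferase reporter were plated in DMEM with 1% FBS and treated with a 10-point, 1:3 dilution series from 10 μM (0.1% DMSO) for 36 to 48 h at 37° C. Luminescence was normalized to DMSO controls, and EC50 came from four-parameter nonlinear regression.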

[2] = test system: Tau phosphorylation at Threonine 212 (pT212Tau), HEK293T cells; experiment: Tau phosphorylation at Threonine 212 (pT212Tau) in Dyrk1a- and MAPT-overexpressing HEK293T cells, sandwich ELISA; assay type: cell-based; conditions: Homo sapiens, HEK-293T, overnight (16-18 hours), read-out: Thr212 EC50
Procedure: Representative compounds were screened using the cell-based assay procedure for signal of Tau phosphorylation at Threonine 212 (pT212Tau) in a transiently double transfected (Dyrk1a- and MAPT-overexpressing) cell type as described below.
HEK293T cells (transfectable human embryonic kidney cells) were cultured in DMEM medium supplemented with 10% FBS and 1% penicillin/streptomycin.
HEK293T cells were transiently transfected to overexpress Dyrkla and microtubule-associated protein Tau (MAPT) genes. Specifically, Dyrkla and MAPT expression vectors were obtained from OriGene (10 μg of each, catalog numbers SC314641 and RC216166, respectively). A MaxiPrep for each vector was ordered and received from GeneWiz, yielding […] (resuspended at […]) of the Dyrkla expression vector, and 898 μg (resuspended at 1.796 μg/μL) of MAPT.
HEK293T cells were seeded at 1.0×10^7 cells in 10 mL per T-75 flask. […] One T-75 flask was designated as a no-vector negative control for pT212Tau signal.
After 4˜6 hours of incubation in transfection reagents, transiently double transfected HEK293T cells were dissociated by treatment with trypsin EDTA and seeded at 1.0×10^5 cells in 100 μL per well in 96-well plates. No-vector negative controls were seeded in separate 96-well plates to avoid the risk of the negative control cells picking up the overexpression during incubation. At the time of seeding, DMSO-resuspended Samumed compounds were dispensed to eight wells as a serial dilution from 10 μM to 4.6 nM final concentration in medium, or at 0.12 μM to 0.05 nM with particularly potent compounds. Cells were exposed to the representative compounds overnight (16-18 hours) in a 37° C. incubator.
96-Well flat-bottom plates were coated with 100 μL per well anti-HT7 capture antibody (ThermoFisher, MN1000) diluted 1:300 in 1×PBS at 4° C. overnight, with shaking at 500 rpm. After overnight capture antibody incubation, coated plates were washed four times with 200 µL per well of 1×PBS-0.05% Tween-20, and blocked for 1 hour with 200 μL per well of 1×PBS with 2% BSA. After 1 hour of blocking, plates were washed four times with 200 μL per well of 1×PBS-0.05% Tween-20, prior to sample loading.
Wells of compound-treated cells were visually checked for cell death before being washed with 200 μL per well of 1×DPBS supplemented with phosphatase inhibitor diluted to IX. Cells were then lysed with 100 μL 1×RIPA buffer supplemented with phosphatase and protease inhibitors (each diluted to a final 1×). Cells were shaken at 500 rpm, 4° C. for 20 minutes prior to further lysis (via manual scraping) and transfer to 96-well V-bottom collection plates (Corning, 3894). V-bottom plates were centrifuged at 4000 rpm, 4° C., for 15 minutes, and 100 μL of lysate supernatant from each well was directly tested for pT212Tau signal by sandwich ELISA.
Specifically, lysates were directly transferred to the coated and blocked ELISA plates for 2 hours before plates were washed four times with 200 μL per well of 1×PBS-0.05% Tween-20 and probed with 100 μL per well of anti-pT212Tau antibody (ThermoFisher, 44-740G) diluted 1:200 in 1×PBS for 2 hours. Plates were washed four times with 200 μL per well of 1×PBS-0.05% Tween-20 and probed with 100 μL per well of anti-rabbit/HRP conjugate (Cell Signaling Technology, 7074S) diluted 1:600 in 1×PBS for 1 hour. Plates were washed four times with 200 μL per well of 1×PBS-0.05% Tween-20 before 100 μL per well of TMB substrate solution (ThermoFisher, N301) was added. When colour development was observed, 100 μL per well of stop solution (ThermoFisher, N600) was added, and colorimetric detection of pT212Tau signal was read at 450 nm with the Cytation 3 Cell Imaging Multi-Mode Reader (BioTek). The signal was used to plot, draw the curves fitting, and determine the EC50 values in GraphPad Prism for tested representative compounds.

[3] = test system: SW480 colon carcinoma cells; experiment: Cell viability assay (CellTiter-Glo) in SW480 cells; assay type: cell-based, human;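 note: SW480 cells stably carrying an Sp5-luciferase TCF/LEF reporter, luminescent ATP signal as viability measure, DMSO-treated cells as control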
Procedure: Representative compounds were screened using the assay procedure to assess the effect on cell viability as described below.
SW480 colon carcinoma cells were transduced with a lentiviral vector expressing luciferase with a human Sp5 promoter consisting of a sequence of eight TCF/LEF binding sites. SW480 cells stably expressing the Sp5-Luc reporter gene and a hygromycin resistance gene were selected by treatment with 150 μg/mL of hygromycin for 7 days. These stably transduced SW480 cells were expanded in cell culture and used for all further screening activities. Each compound was dissolved in DMSO as a 10 mM stock and used to prepare compound source plates.
For the Cell Viability Assays, the cells were plated at 2,000 cells/well in 384-well plates with a DMEM medium containing 1% fetal bovine serum, and 1% Penicillin-Streptomycin and incubated for four days hours at 37° C. and 5% CO2. Eight replicates of DMSO-treated cells served as controls and cells treated with compound were performed in duplicate.
After incubation, 10 μL of CellTiter-Glo (Promega) was added to each well allowed to incubate for approximately 12 minutes.
Dose-response curves were generated and EC50 concentration values were calculated using non-linear regression curve fit in the GraphPad Prism (San Diego, Calif.) or Dotmatics' Studies Software (Bishops Stortford, UK).

[4] = Homo sapiens; Sp5-Luc reporter, SW480 cells, 36 to 48 hours
[5] = Homo sapiens, 96 h; cell viability, SW480 cells, four days, CellTiter-Glo
[6] = Homo sapiens, SW480, read-out: percent inhibition at 10 μM
[7] = Homo sapiens, SW480; read-out: percent inhibition at 10 μM

Row | EC50 [1, 4] | EC50 [3, 5] | SMILES | EC50 [2] | inhibition at 10 µM [1, 6] | inhibition at 10 µM [3, 6] | inhibition at 10 µM [1, 7] | inhibition at 10 µM [3, 7]
1 | 434 nM | 2050 nM | Cc1nnc(-c2ccc3cnc(NC(=O)[C@H]4CC[C@H](N(C)C)CC4)cc3c2)s1 [Compound 22, trans-4-(Dimethylamino)-N-(6-(5-methyl-1,3,4-thiadiazol-2-yl)isoquinolin-3-yl)cyclohexane-1-carboxamide] | 11 nM | – | – | – | –
2 | 1460 nM | 547 nM | Cc1cn2c(n1)CN(C(=O)Nc1cc3cc(-c4nnc(C)s4)ccc3cn1)CC2 [Compound 58, 2-Methyl-N-(6-(5-methyl-1,3,4-thiadiazol-2-yl)isoquinolin-3-yl)-5,6-dihydroimidazo[1,2-a]pyrazine-7(8H)-carboxamide] | 93 nM | – | – | – | –
3 | > 10000 nM | 3990 nM | C[C@@H]1CN(C(=O)Nc2cc3cc(-c4cnn(C)c4)ccc3cn2)CCN1C [Compound 67, (R)-3,4-Dimethyl-N-(6-(1-methyl-1H-pyrazol-4-yl)isoquinolin-3-yl) piperazine-1-carboxamide] | 6 nM | – | – | 34.3% | –
4 | 3430 nM | 2960 nM | COCCN[C@H]1CC[C@H](C(=O)Nc2cc3cc(-c4cnc(C)o4)ccc3cn2)CC1 [Compound 106, trans-4-((2-Methoxyethyl)amino)-N-(6-(2-methyloxazol-5-yl)isoquinolin-3-yl)cyclohexane-1-carboxamide] | 137 nM | – | – | – | –
5 | 3980 nM | 6110 nM | COCCN[C@H]1CC[C@H](C(=O)Nc2cc3cc(-c4cnn(C)c4)ccc3cn2)CC1 [Compound 196, trans-4-((2-Methoxyethyl)amino)-N-(6-(1-methyl-1H-pyrazol-4-yl)isoquinolin-3-yl)cyclohexane-1-carboxamide] | 19 nM | – | – | – | –
6 | 3650 nM | > 10000 nM | Cc1nnc(-c2cc(F)c3cnc(NC(=O)N(C)C4CCN(C)CC4)cc3c2)s1 [Compound 227, 3-(8-Fluoro-6-(5-methyl-1,3,4-thiadiazol-2-yl)isoquinolin-3-yl)-1-methyl-1-(1-methylpiperidin-4-yl)urea] | 691 nM | – | – | – | 1.9%
7 | > 10000 nM | > 10000 nM | CN1CCC(N(C)C(=O)Nc2cc3cc(-c4cn(C)nn4)cc(F)c3cn2)CC1 [Compound 228, 3-(8-Fluoro-6-(1-methyl-1H-1,2,3-triazol-4-yl)isoquinolin-3-yl)-1-methyl-1-(1-methylpiperidin-4-yl)urea] | > 10000 nM | – | – | 46.3% | –
8 | > 10000 nM | > 10000 nM | CN1CCC(N(C)C(=O)Nc2cc3cc(-c4cnn(C)c4)cc(F)c3cn2)CC1 [Compound 230, 3-(8-Fluoro-6-(1-methyl-1H-pyrazol-4-yl)isoquinolin-3-yl)-1-methyl-1-(1-methylpiperidin-4-yl)urea] | 56 nM | – | – | 0% | 31.9%
9 | 3890 nM | > 10000 nM | Cc1ncc(-c2ccc3cnc(NC(=O)N(C)C4CCN(C)CC4)cc3c2)o1 [Compound 231, 1-Methyl-3-(6-(2-methyloxazol-5-yl)isoquinolin-3-yl)-1-(1-methylpiperidin-4-yl)urea] | 110 nM | – | – | – | 41.6%

Row | SMILES | EC50 [1, 4] | EC50 [3, 5] | EC50 [2] | inhibition at 10 µM [1, 6] | inhibition at 10 µM [3, 6] | inhibition at 10 µM [1, 7] | inhibition at 10 µM [3, 7]
10 | CN1CC2CCC(C1)N2C(=O)Nc1cc2cc(-c3cnn(C)c3)ccc2cn1 [Compound 61, 3-Methyl-N-(6-(1-methyl-1H-pyrazol-4-yl)isoquinolin-3-yl)-3,8-diazabicyclo[3.2.1]octane-8-carboxamide] | > 10000 nM | > 10000 nM | 15 nM | 22.4% | 13.1% | – | –
11 | Cc1nnc(-c2ccc3cnc(NC(=O)N4C5CCC4CN(C)C5)cc3c2)s1 [Compound 108, 3-Methyl-N-(6-(5-methyl-1,3,4-thiadiazol-2-yl)isoquinolin-3-yl)-3,8-diazabicyclo[3.2.1]octane-8-carboxamide] | > 10000 nM | > 10000 nM | 22 nM | 19.9% | 7.8% | – | –
12 | Cc1nnc(-c2ccc3cnc(NC(=O)N4[C@@H]5CC[C@H]4C[C@H](NCCC(F)(F)F)C5)cc3c2)s1 [Compound 153, (1R,5S)-N-(6-(5-Methyl-1,3,4-thiadiazol-2-yl)isoquinolin-3-yl)-3-exo-((3,3,3-trifluoropropyl)amino)-8-azabicyclo[3.2.1]octane-8-carboxamide] | > 10000 nM | > 10000 nM | 528 nM | 3.4% | 0% | – | –
13 | Cc1ncc(-c2ccc3cnc(NC(=O)[C@H]4CC[C@H](NCCF)CC4)cc3c2)o1 [Compound 155, trans-4-((2-fluoroethyl)amino)-N-(6-(2-methyloxazol-5-yl)isoquinolin-3-yl) cyclohexane-1-carboxamide] | 2670 nM | 807 nM | 26 nM | – | – | – | –
14 | Cc1nnc(-c2ccc3cnc(NC(=O)N4[C@@H]5CC[C@H]4C[C@@H](NCCC(F)(F)F)C5)cc3c2)s1 [Compound 195, (1R,5S)-cis-N-(6-(5-methyl-1,3,4-thiadiazol-2-yl)isoquinolin-3-yl)-3-((3,3,3-trifluoropropyl)amino)-8-azabicyclo[3.2.1]octane-8-carboxamide] | > 10000 nM | > 10000 nM | 46 nM | 13.8% | 13% | – | –
